Patent US9511074B2, “Methods of treating disorders associated with protein polymerization” (UNIVERSITY OF PITTSBURGH—OF THE COMMONWEALTH SYSTEM OF …, priority 2009, dated 2016)
Residues, ends and D or L forms follow the SMILES beside them. *: point of attachment. Cbz = O=C(OCc1ccccc1)*

Experiments:
[1] = tested on: ATZ in the HTO/Z cell line; test: ATZ levels in HTO/Z cells in the presence of proteasomal inhibitors with or without CBZ; type: cell-based, human; conditions: for levels of ATZ with proteasomal inhibitor alone: no CBZ; for levels of insoluble ATZ in the presence of CBZ: proteasomal inhibitor added for last 6 hours
Protocol: For experiments in which proteasomal inhibitors were used, MG132 was used at 30 μM and lactacystin at 10 μM for the last 6 hours of the incubation with CBZ or control. Cells that were incubated with MG132 or lactacystin alone served as control to validate that the proteasome was inhibited. For investigation of LC3 conversion, lysosomal inhibitors (E64D and pepstatin A at 20 μg/ml) were added to the medium for the last 4 hours of the incubation with CBZ or control. […] If the number of separate experiments done in the cell line models is not specifically indicated in the text or figure legend, at least 3 separate experiments were done in each case.
(§1) For immunoblot analysis to detect AT, GAPDH or LC3, cells were lysed in 50 mM Tris-HCl, 150 mM NaCl, 1% NP-40, pH 8.0. Protein levels were quantified using the BCA protein assay (Pierce Biotechnology, Rockford, Ill.). 10-50 μg samples were loaded onto 7.5% precast gels. PVDF membranes were blocked in TBS, 0.5% Tween 20 (TBST), 5% milk and then incubated with primary antibody in 5% milk TBST solution. Horseradish peroxidase anti-goat Ig or anti-mouse Ig (Jackson Labs, Bar Harbor, Me.) were used as secondary antibodies in TBST. Blots were visualized with Super Signal West Dura or West Femto from Pierce.

[2] = tested on: ATZ in the HTO/Z cell line; test: Steady state levels of ATZ in the HTO/Z cell line (immunoblot of insoluble and soluble fractions); type: cell-based, human; conditions: HTO/Z cells
Description: Cell Lines The human epidermal HeLa cell line with doxycycline-regulated expression of ATZ (HTO/Z) has been described previously (1). HTO/M and HTO/Saar are HeLa cell lines with doxycycline-regulated expression of wild type AT and the AT Saar variant, respectively (1). A murine embryonic fibroblast cell line (MEF) with targeted disruption of Atg5 (2) was engineered for stable expression of ATZ using the previously described pRc/RSV-ATZ expression plasmid (3). A wild type MEF cell line was also engineered for stable expression of ATZ in the same way to serve as control. For experiments with CBZ, the inducible cell lines were cultured in the absence of doxycycline for at least 4 weeks for maximal expression of AT. The cells were then subcultured into separate monolayers in fresh complete growth medium and incubated for 48 hours in the absence or presence of CBZ or rapamycin (RAP). CBZ or RAP were added to the growth medium. The duration of incubation with CBZ was determined to be optimal at 48 hours based on experiments in which the duration was varied from 12 to 72 hours. Doses of CBZ were based on previous studies of its effects in cell lines (5,6). Doses of RAP were based on previous positive effects on autophagic disposal of polyglutamine-repeat proteins (7). After the incubation cells were homogenized and cell homogenates separated into insoluble and soluble fractions according to our previously established technique (8). Samples of 20 μgs each were subjected to immunoblot analysis for AT, BiP and GAPDH.
as §1

ATZ in the liver = test: Hepatic load of ATZ in vivo in PiZ×GFP-LC3 mice (immunoblot, globule histology); design: species or system mouse; conditions: PiZ mice, 2 mg/kg/day intraperitoneal for 2 weeks, FIG. 5C
Description: Transgenic Mice PiZ mice that have been bred into the C57/BL6 background have been described previously (1). For the second and third series of experiments with CBZ we used PiZ mice that were re-derived onto the FVB/N background for a move into a new animal facility. The transgene that was used to generate the PiZ mouse is a genomic fragment of DNA that contains the coding regions of the ATZ gene together with introns and ˜2 kilobases of upstream and downstream flanking regions (10). […] In this perspective it is not an exact phenocopy of the classical form of AT deficiency. In particular it cannot be a model for the loss-of-function mechanisms associated with the classical form of AT deficiency. It is known to have abundant expression of ATZ in hepatocytes and other cell types that express ATZ in humans (11). In the liver there are abundant ATZ-containing intrahepatocytic globules and inflammation that is characteristic of what is seen in the human liver (11,12). […] Taken together, these observations indicate that the PiZ mouse is an appropriate model for the gain-of-toxic function mechanism that is responsible for liver damage in the classical form of AT deficiency. Indeed, the fact that these mice are endowed with endogenous AT function and therein normal levels of AT in the serum and body fluids make them an even more ‘pure’ model for liver damage by gain-of-toxic function. PiZ×GFP-LC3 mice, which generated green fluorescent autophagosomes, have been described previously (2). PiZ×IKKβ.hep were generated by mating of PiZ to IKKβ.hep, which has conditional hepatocyte-specific disruption of NF.B activation (M. Karin, 17). There is increased injury in the liver of these mice as evidenced by the hepatic hydroxyproline content, 153.3% of that in the PiZ mouse (FIG. 7).
Histology Sections of liver tissue were stained with hematoxylin and eosin, PAS, PAS after diastase treatment, TUNEL, PCNA, Ki67 and Sirius Red using standard techniques (18). Previous methods for staining with antibody to smooth muscle actin were used (19). Each was examined by the pathologist (GM) who was completely blinded to the experimental protocol. […] The number of inflammatory nodules, AT-containing globules and autophagosomes were each quantified blindly by counting cells in 6 microscopic fields of 10 different sections for each liver. The number of nuclei, as determined by Hoechst staining, was used to exclude the possibility that different numbers of cells were counted in liver sections from mice treated with CBZ as compared to controls. Hepatic hydroxyproline concentration was determined by a well-established protocol (20,21). […]
For immunoblot on liver, the liver was snap frozen in liquid nitrogen and stored at −80° C. […] Total protein concentration was measured by BCA assay (Pierce). […]

[3] = 48 hours incubation, immunoblot

CC(C)C[C@@H](C=O)NC(=O)[C@H](CC(C)C)NC(=O)[C@H](CC(C)C)NC(=O)OCc1ccccc1 [MG132] (Cbz-Leu-Leu-Leu-aldehyde)
levels of ATZ with proteasomal inhibitor alone [1]: Increased levels | levels of insoluble ATZ in the presence of CBZ [1]: no effect

NC(=O)N1c2ccccc2CC(=O)c2ccccc21 [OBZ, 10,11-dihydro-10-oxo-5H-dibenz[b,f]azepine-5-carboxamide]
steady-state levels of ATZ, insoluble fraction [2, 3]: marked decrease | steady-state levels of ATZ, soluble fraction [2, 3]: minimal effect | lowest dose with evident effect on insoluble ATZ ([2]; 48 hrs, FIG. 9): 0.1 µM

CC(=O)N[C@@H](CSC(=O)[C@]1([C@@H](O)C(C)C)NC(=O)[C@H](C)[C@@H]1O)C(=O)O [lactacystin]
levels of ATZ with proteasomal inhibitor alone [1]: Increased levels | reversal of the effect of CBZ on levels of soluble ATZ ([1]; lactacystin 10 μM for last 6 hours of CBZ incubation, mean SD, n=3): 23.1±14.0% | levels of insoluble ATZ in the presence of CBZ [1]: no effect

CO[C@H]1C[C@@H]2CC[C@@H](C)[C@@](O)(O2)C(=O)C(=O)N2CCCC[C@H]2C(=O)O[C@H]([C@H](C)C[C@@H]2CC[C@@H](O)[C@H](OC)C2)CC(=O)[C@H](C)/C=C(\C)[C@@H](O)[C@@H](OC)C(=O)[C@H](C)C[C@H](C)/C=C/C=C/C=C/1C [rapamycin]
ATZ levels (insoluble and soluble fractions) ([2]; 48-hour incubation, FIG. 1B): no effect | hepatic ATZ levels (ATZ in the liver): no effect
